In patent US10487093B2, “Heterocyclic compounds, in particular 2-oxo-4,4,5,5,6,6,7,7-octahydrobenzoxazole derivatives, and their use as antibacterial compounds” (priority 2016, dated 2019):
≈ marks a conversion by molar mass, not a printed value. Like-named read-outs stand apart in the source and are kept apart here.

Key:
Format in all cases: cell-based
[1] = test system: Staphylococcus aureus ATCC 29213; assay: MIC, broth microdilution (CLSI) versus planktonic bacteria; details: ATCC29213; Staphylococcus aureus ATCC 29213; 16-20 h; mode of three independent experiments; read-out: MIC, Sa ATCC 29213
[2] = test system: Streptococcus pneumoniae ATCC 49619; assay: as above; details: ATCC49619; Streptococcus pneumoniae ATCC 49619; 16-20 h; mode of three independent experiments; read-out: MIC, Sp ATCC 49619
[3] = test system: Clostridium difficile ATCC 700057; assay: MIC against anaerobes, agar dilution (CLSI), reference strain; details: Clostridioides difficile, ATCC700057, 48 h, read-out: MIC, C. difficile ATCC 700057
[4] = test system: Bacteroides fragilis ATCC 25285; assay: as above; details: ATCC25285, agar dilution, Brucella blood agar, 35° C., 48 h, anaerobic conditions, read-out: MIC, B. fragilis ATCC 25285
[5] = test system: Bacteroides thetaiotaomicron ATCC 29741; assay: microbe, parasite or virus in culture; details: ATCC29741, agar dilution, Brucella blood agar, 35° C., 48 h, anaerobic conditions, read-out: MIC, B. thetaiotaomicron ATCC
[6] = test system: strains of Clostridium perfringens; assay: microbe, parasite or virus in culture
[7] = test system: strains of Finegoldia magna; assay: MIC against anaerobes, agar dilution (CLSI), clinical isolates; details: Finegoldia magna, read-out: MIC
[8] = test system: strains of Parvimonas micra; assay: as above
[9] = test system: strains of Peptoniphilus harei; assay: as above; details: Peptoniphilus harei, read-out: MIC
[10] = test system: strains of Peptostreptococcus anaerobius; assay: as above
[11] = test system: strains of Propionibacterium acnes; assay: as above; details: Cutibacterium acnes
[12] = test system: strains of Bacteroides fragilis; assay: as above
[13] = test system: strains of Bacteroides thetaiotaomicron; assay: microbe, parasite or virus in culture
[14] = test system: strains of Prevotella bivia; assay: MIC against anaerobes, agar dilution (CLSI), clinical isolates
[15] = test system: strains of Prevotella melaninogenica; assay: as above

## Cc1ccc2ncc(=O)n(CCN[C@H]3CC[C@H]4[C@@H](C3)OC(=O)N4c3ccc4c(n3)NC(=O)CO4)c2c1 [Compound 27, 1-(2-{[(3aS,6S,7aR)-2-oxo-3-{3-oxo-2H,3H,4H-pyrido[3,2-b][1,4]oxazin-6-yl}-octahydro-1,3-benzoxazol-6-yl]amino}ethyl)-7-methyl-1,2-dihydroquinoxalin-2-one]
[1]
  MIC: < 1 µg/mL
[2]
  MIC: < 1 µg/mL
[3]
  MIC: 1 to 4 µg/mL (≈ 2.04 to 8.15 µM)
[4]
  MIC: 4 to 16 µg/mL (≈ 8.15 to 32.6 µM)
[5]
  MIC: 1 to 4 µg/mL (≈ 2.04 to 8.15 µM)
[6]; Clostridium perfringens strain 1
  MIC: < 1 µg/mL
[6]; Clostridium perfringens strain 2
  MIC: < 1 µg/mL
[6]; Clostridium perfringens strain 3
  MIC: < 1 µg/mL
[6]; Clostridium perfringens strain 4
  MIC: < 1 µg/mL
[6]; Clostridium perfringens strain 5
  MIC: < 1 µg/mL
[6]; Clostridium perfringens strain 6
  MIC: < 1 µg/mL
[6]; Clostridium perfringens strain 7
  MIC: < 1 µg/mL
[6]; Clostridium perfringens strain 8
  MIC: 1 to 4 µg/mL (≈ 2.04 to 8.15 µM)
[6]; Clostridium perfringens strain 9
  MIC: < 1 µg/mL
[6]; Clostridium perfringens strain 10
  MIC: < 1 µg/mL
[6]; Clostridium perfringens strain 11
  MIC: < 1 µg/mL
[7]; Finegoldia magna strain 1
  MIC: 1 to 4 µg/mL (≈ 2.04 to 8.15 µM)
[7]; Finegoldia magna strain 2
  MIC: 16 to 64 µg/mL (≈ 32.6 to 130 µM)
[7]; Finegoldia magna strain 3
  MIC: 1 to 4 µg/mL (≈ 2.04 to 8.15 µM)
[7]; Finegoldia magna strain 4
  MIC: 16 to 64 µg/mL (≈ 32.6 to 130 µM)
[7]; Finegoldia magna strain 5
  MIC: 16 to 64 µg/mL (≈ 32.6 to 130 µM)
[7]; Finegoldia magna strain 6
  MIC: 16 to 64 µg/mL (≈ 32.6 to 130 µM)
[7]; Finegoldia magna strain 7
  MIC: > 64 µg/mL
[7]; Finegoldia magna strain 8
  MIC: 1 to 4 µg/mL (≈ 2.04 to 8.15 µM)
[7]; Finegoldia magna strain 9
  MIC: > 64 µg/mL
[7]; Finegoldia magna strain 10
  MIC: 4 to 16 µg/mL (≈ 8.15 to 32.6 µM)
[7]; Finegoldia magna strain 11
  MIC: 16 to 64 µg/mL (≈ 32.6 to 130 µM)
[7]; Finegoldia magna strain 12
  MIC: 16 to 64 µg/mL (≈ 32.6 to 130 µM)
[8]; Parvimonas micra strain 1
  MIC: > 64 µg/mL
[8]; Parvimonas micra strain 2
  MIC: 16 to 64 µg/mL (≈ 32.6 to 130 µM)
[8]; Parvimonas micra strain 3
  MIC: > 64 µg/mL
[8]; Parvimonas micra strain 4
  MIC: > 64 µg/mL
[8]; Parvimonas micra strain 5
  MIC: > 64 µg/mL
[8]; Parvimonas micra strain 6
  MIC: 1 to 4 µg/mL (≈ 2.04 to 8.15 µM)
[8]; Parvimonas micra strain 7
  MIC: 16 to 64 µg/mL (≈ 32.6 to 130 µM)
[8]; Parvimonas micra strain 8
  MIC: 16 to 64 µg/mL (≈ 32.6 to 130 µM)
[8]; Parvimonas micra strain 9
  MIC: 16 to 64 µg/mL (≈ 32.6 to 130 µM)
[8]; Parvimonas micra strain 10
  MIC: 16 to 64 µg/mL (≈ 32.6 to 130 µM)
[8]; Parvimonas micra strain 11
  MIC: 16 to 64 µg/mL (≈ 32.6 to 130 µM)
[8]; Parvimonas micra strain 12
  MIC: 16 to 64 µg/mL (≈ 32.6 to 130 µM)
[9]; Peptoniphilus harei strain 1
  MIC: < 1 µg/mL
[9]; Peptoniphilus harei strain 2
  MIC: < 1 µg/mL
[9]; Peptoniphilus harei strain 3
  MIC: < 1 µg/mL
[9]; Peptoniphilus harei strain 4
  MIC: < 1 µg/mL
[9]; Peptoniphilus harei strain 5
  MIC: < 1 µg/mL
[9]; Peptoniphilus harei strain 6
  MIC: < 1 µg/mL
[9]; Peptoniphilus harei strain 7
  MIC: < 1 µg/mL
[9]; Peptoniphilus harei strain 8
  MIC: < 1 µg/mL
[9]; Peptoniphilus harei strain 9
  MIC: < 1 µg/mL
[9]; Peptoniphilus harei strain 10
  MIC: < 1 µg/mL
[9]; Peptoniphilus harei strain 11
  MIC: < 1 µg/mL
[9]; Peptoniphilus harei strain 12
  MIC: < 1 µg/mL
[10]; Peptostreptococcus anaerobius strain 1
  MIC: < 1 µg/mL
[10]; Peptostreptococcus anaerobius strain 2
  MIC: < 1 µg/mL
[10]; Peptostreptococcus anaerobius strain 3
  MIC: < 1 µg/mL
[10]; Peptostreptococcus anaerobius strain 4
  MIC: 4 to 16 µg/mL (≈ 8.15 to 32.6 µM)
[10]; Peptostreptococcus anaerobius strain 5
  MIC: < 1 µg/mL
[10]; Peptostreptococcus anaerobius strain 6
  MIC: < 1 µg/mL
[10]; Peptostreptococcus anaerobius strain 7
  MIC: < 1 µg/mL
[10]; Peptostreptococcus anaerobius strain 8
  MIC: < 1 µg/mL
[10]; Peptostreptococcus anaerobius strain 9
  MIC: < 1 µg/mL
[10]; Peptostreptococcus anaerobius strain 10
  MIC: < 1 µg/mL
[11]; Propionibacterium acnes strain 1
  MIC: 1 to 4 µg/mL (≈ 2.04 to 8.15 µM)
[11]; Propionibacterium acnes strain 2
  MIC: < 1 µg/mL
[11]; Propionibacterium acnes strain 3
  MIC: < 1 µg/mL
[11]; Propionibacterium acnes strain 4
  MIC: < 1 µg/mL
[11]; Propionibacterium acnes strain 5
  MIC: 1 to 4 µg/mL (≈ 2.04 to 8.15 µM)
[11]; Propionibacterium acnes strain 6
  MIC: 1 to 4 µg/mL (≈ 2.04 to 8.15 µM)
[11]; Propionibacterium acnes strain 7
  MIC: 1 to 4 µg/mL (≈ 2.04 to 8.15 µM)
[11]; Propionibacterium acnes strain 8
  MIC: 1 to 4 µg/mL (≈ 2.04 to 8.15 µM)
[11]; Propionibacterium acnes strain 9
  MIC: 1 to 4 µg/mL (≈ 2.04 to 8.15 µM)
[11]; Propionibacterium acnes strain 10
  MIC: 1 to 4 µg/mL (≈ 2.04 to 8.15 µM)
[11]; Propionibacterium acnes strain 11
  MIC: < 1 µg/mL
[11]; Propionibacterium acnes strain 12
  MIC: 1 to 4 µg/mL (≈ 2.04 to 8.15 µM)
[12]; Bacteroides fragilis strain 1
  MIC: 16 to 64 µg/mL (≈ 32.6 to 130 µM)
[12]; Bacteroides fragilis strain 2
  MIC: 1 to 4 µg/mL (≈ 2.04 to 8.15 µM)
[12]; Bacteroides fragilis strain 3
  MIC: 1 to 4 µg/mL (≈ 2.04 to 8.15 µM)
[12]; Bacteroides fragilis strain 4
  MIC: 1 to 4 µg/mL (≈ 2.04 to 8.15 µM)
[12]; Bacteroides fragilis strain 5
  MIC: 1 to 4 µg/mL (≈ 2.04 to 8.15 µM)
[12]; Bacteroides fragilis strain 6
  MIC: 1 to 4 µg/mL (≈ 2.04 to 8.15 µM)
[12]; Bacteroides fragilis strain 7
  MIC: 4 to 16 µg/mL (≈ 8.15 to 32.6 µM)
[12]; Bacteroides fragilis strain 8
  MIC: 1 to 4 µg/mL (≈ 2.04 to 8.15 µM)
[12]; Bacteroides fragilis strain 9
  MIC: 1 to 4 µg/mL (≈ 2.04 to 8.15 µM)
[12]; Bacteroides fragilis strain 10
  MIC: 1 to 4 µg/mL (≈ 2.04 to 8.15 µM)
[12]; Bacteroides fragilis strain 11
  MIC: 1 to 4 µg/mL (≈ 2.04 to 8.15 µM)
[12]; Bacteroides fragilis strain 12
  MIC: 1 to 4 µg/mL (≈ 2.04 to 8.15 µM)
[13]; Bacteroides thetaiotaomicron strain 1, read-out: MIC
  MIC: 4 to 16 µg/mL (≈ 8.15 to 32.6 µM)
[13]; Bacteroides thetaiotaomicron strain 2, read-out: MIC
  MIC: 1 to 4 µg/mL (≈ 2.04 to 8.15 µM)
[13]; Bacteroides thetaiotaomicron strain 3, read-out: MIC
  MIC: 4 to 16 µg/mL (≈ 8.15 to 32.6 µM)
[13]; Bacteroides thetaiotaomicron strain 4, read-out: MIC
  MIC: 4 to 16 µg/mL (≈ 8.15 to 32.6 µM)
[13]; Bacteroides thetaiotaomicron strain 5, read-out: MIC
  MIC: 1 to 4 µg/mL (≈ 2.04 to 8.15 µM)
[13]; Bacteroides thetaiotaomicron strain 6, read-out: MIC
  MIC: 4 to 16 µg/mL (≈ 8.15 to 32.6 µM)
[13]; Bacteroides thetaiotaomicron strain 7, read-out: MIC
  MIC: 4 to 16 µg/mL (≈ 8.15 to 32.6 µM)
[13]; Bacteroides thetaiotaomicron strain 8, read-out: MIC
  MIC: 1 to 4 µg/mL (≈ 2.04 to 8.15 µM)
[13]; Bacteroides thetaiotaomicron strain 9, read-out: MIC
  MIC: < 1 µg/mL
[13]; Bacteroides thetaiotaomicron strain 10, read-out: MIC
  MIC: 1 to 4 µg/mL (≈ 2.04 to 8.15 µM)
[13]; Bacteroides thetaiotaomicron strain 11, read-out: MIC
  MIC: 4 to 16 µg/mL (≈ 8.15 to 32.6 µM)
[14]; Prevotella bivia strain 1
  MIC: < 1 µg/mL
[14]; Prevotella bivia strain 2
  MIC: < 1 µg/mL
[14]; Prevotella bivia strain 3
  MIC: 1 to 4 µg/mL (≈ 2.04 to 8.15 µM)
[14]; Prevotella bivia strain 4
  MIC: 1 to 4 µg/mL (≈ 2.04 to 8.15 µM)
[14]; Prevotella bivia strain 5
  MIC: < 1 µg/mL
[14]; Prevotella bivia strain 6
  MIC: 1 to 4 µg/mL (≈ 2.04 to 8.15 µM)
[14]; Prevotella bivia strain 7
  MIC: 1 to 4 µg/mL (≈ 2.04 to 8.15 µM)
[14]; Prevotella bivia strain 8
  MIC: < 1 µg/mL
[14]; Prevotella bivia strain 9
  MIC: < 1 µg/mL
[14]; Prevotella bivia strain 10
  MIC: < 1 µg/mL
[15]; Prevotella melaninogenica strain 1
  MIC: 1 to 4 µg/mL (≈ 2.04 to 8.15 µM)
[15]; Prevotella melaninogenica strain 2
  MIC: < 1 µg/mL
[15]; Prevotella melaninogenica strain 3
  MIC: < 1 µg/mL
[15]; Prevotella melaninogenica strain 4
  MIC: < 1 µg/mL
[15]; Prevotella melaninogenica strain 5
  MIC: < 1 µg/mL
[15]; Prevotella melaninogenica strain 6
  MIC: < 1 µg/mL
[15]; Prevotella melaninogenica strain 7
  MIC: < 1 µg/mL
[15]; Prevotella melaninogenica strain 8
  MIC: < 1 µg/mL
[15]; Prevotella melaninogenica strain 9
  MIC: < 1 µg/mL
[15]; Prevotella melaninogenica strain 10
  MIC: 1 to 4 µg/mL (≈ 2.04 to 8.15 µM)
[15]; Prevotella melaninogenica strain 11
  MIC: < 1 µg/mL
